# Measurements from ChEMBL document CHEMBL1157539, “Thousands of chemical starting points for antimalarial lead identification” (Nature, 2010).
# System: Plasmodium falciparum
# Assay: GSK_TCMDC: Inhibition of Plasmodium falciparum 3D7 in whole erythrocytes, using parasite LDH activity as an index of growth.
# Type: functional, organism-based
# Conditions: Plasmodium falciparum, 3D7
row,SMILES,XC50 [µM]
1,CC(C)N1CCC(N(Cc2ccc(-c3ccc(C(F)(F)F)cc3)cc2)C(=O)Cn2c(SCc3cccc(F)c3F)nc(=O)c3ccccc32)CC1,1.05
2,Cc1cc(CNCCCCCNCc2ccc(Cl)cc2)ccc1O,0.706
3,O=C(NCCCCN1CCC(c2nc3ccccc3s2)CC1)c1cc2ccccc2[nH]1,1.02
4,O=C(/C=C/c1ccc(Cl)c(Cl)c1)N1CCC(CCN2CCC(c3c[nH]c4cnccc34)CC2)CC1,0.119
5,O=C(Nc1ccc(C(=O)OCC2CCCN3CCCCC23)cc1)c1ccc(Cl)c(Cl)c1 (configuration not stated),0.721
6,N#Cc1ccc(Cn2ccc3c4c(N)nc(N)nc4ccc32)cc1,0.00329
7,FC(F)(F)CNc1nc(Nc2ccc3ncccc3c2)nc2[nH]ccc12,1.24
8,N#Cc1cccc(C(=O)Nc2cccc(-c3ccc(C(=O)NCCCN4CCOCC4)cc3)c2)c1,0.749
9,Cc1sc2ncnc(Sc3nnc(N)s3)c2c1C,0.399
10,N#Cc1cc([N+](=O)[O-])ccc1-n1nc(-c2cccc(Cl)c2)n(Cc2ccco2)c1=S,0.196
11,Cc1nc(C)n(CC(=O)Nc2cccc(-c3cccc(-c4nc5cc(C(F)(F)F)ccc5[nH]4)c3)c2)n1,0.761
12,COC[C@H]1CCCN1Cc1ccc(-c2ccc(-c3nc4ccccc4[nH]3)s2)cc1,1
13,COc1cc2nc(N(C)C3CCN(Cc4ccccc4)CC3)nc(N)c2cc1OC,0.334
14,COc1ccc(NC(=O)C2c3ccccc3C(=O)N(C3CCCC3)C2c2cccs2)cc1 (configuration not stated),1.71
15,OCC1CCN(Cc2ccc(-c3ccc(-c4nc5cc(C(F)(F)F)ccc5[nH]4)s3)cc2)CC1,0.477
16,CC1CCN(CC[C@H]2CCCN2S(=O)(=O)c2cccc(NC(=O)Nc3ccc(C(F)(F)F)cc3)c2)CC1,0.722
17,OC(CNCc1ccco1)Cn1c2ccc(Br)cc2c2cc(Br)ccc21 (configuration not stated),1.07
18,CC(C)(C)c1ccc(N2C(N)=NC(N)=NC2(C)C)cc1Cl,0.00656
19,CC(=O)C1=NN(c2ccc(C)cc2)C(c2cccs2)N1c1ccccc1 (configuration not stated),0.338
20,CC(C)CNCc1cccc(-c2ccc(CN(C(=O)Nc3ccccc3)C3CCN(Cc4ccccc4)CC3)cc2)c1,0.476
21,O=C(Nc1ccc(Cl)cc1C(=O)Nc1cccc(F)c1)c1ccc([N+](=O)[O-])cc1,0.365
22,CN(C)Cc1ccc2cc(NC(=O)c3ccc(-c4ccc(Cl)cc4)cc3)ccc2c1,1.34
23,CN/C(=N\O)NCCN(C)C,1.18
24,COc1ccc2ccccc2c1CCCCN1CCN(CC(c2ccc(F)cc2)N2CCN(C3CCCC3)CC2)CC1 (configuration not stated),0.772
25,O=C(Nc1ccc(Cl)cc1)c1cc(Cl)ccc1NC(=O)C1CCc2ccccc2O1 (configuration not stated),1.79

row,SMILES,XC50 [µM]
1,OC(CN1CCN(Cc2ccccc2)CC1)Cn1c(-c2ccccc2)c(-c2ccccc2)c2ccccc21 (configuration not stated),0.711
2,FC(F)(F)c1cccc(CNC2CCN(CC3CCCCC3)CC2)c1,0.575
3,Cc1cc(N(C)C2CCN(C)CC2)nc(Nc2ccc(Cl)cc2)n1,0.29
4,O=C(NC1CCC(CN2CCC(c3c[nH]c4ccccc34)CC2)CC1)NC12CC3CC(CC(C3)C1)C2 (configuration not stated),1.06
5,CO/C(=C\C=C\c1cc2cc(Cl)c(Cl)cc2[nH]1)C(=O)NCCCN1CCC(c2ccccc2)CC1,0.906
6,CCOc1ccc2c(=NN=Cc3ccccc3F)cc(C)[nH]c2c1,0.676
7,O=C(/C=C/c1ccc(Cl)c(Cl)c1)N1CCC2CC(N3CCC(c4c[nH]c5ccccc45)CC3)CCC2C1 (configuration not stated),0.171
8,CN1CCN(CC(=O)Nc2ccc(-c3csc(-c4nc5ccccc5[nH]4)c3)cc2)CC1,1.56
9,CCNc1cc(C(=O)N[C@@H](Cc2ccccc2)[C@H](O)CNC2CCCCC2)cc(N2CCCCS2(=O)=O)c1,0.17
10,c1ccc(COc2ccc(Nc3ncnc4cnc(-c5ccc(CNc6cccnc6)o5)cc34)cc2)cc1,0.857
11,CON=Cc1ccn(-c2ccc(O)c3c2C[C@H]2C[C@H]4[C@H](N(C)C)C(O)=C(C(N)=O)C(=O)[C@@]4(O)C(O)=C2C3=O)c1,0.773
12,Brc1cc(CNCCCNc2nc3ccccc3[nH]2)sc1Br,0.221
13,C[C@H](Cc1ccc(OCCCCCCOc2ccccc2)cc1)NC[C@@H](O)c1cc(Br)no1,0.883
14,CC[C@H]1CN(Cc2ccco2)CC[C@H]1CCCc1ccnc2ccc(O)cc12,1.27
15,COc1cccc(CN2CCC(N3CCc4cc(NC(=O)c5cc(C)on5)ccc43)C2)c1OC (configuration not stated),0.952
16,CCC(CN1C(=O)C(c2ccccc2)(c2ccccc2)N=C1N)c1ccccc1 (configuration not stated),0.136
17,Cc1ccc2c(c1)nc(N)n2C[C@H](O)c1ccccc1,0.582
18,Cc1nn(C2CCS(=O)(=O)C2)c(C)c1C1Nc2ccccc2C(=O)N1Cc1ccc2c(c1)OCO2 (configuration not stated),0.511
19,CCN(CC)CCCC(C)N=c1cc(C=Cc2ccc([N+](=O)[O-])cc2)[nH]c2ccc(OC)cc12 (configuration not stated),0.574
20,O=C(Nc1ccc(OC2CCN(Cc3ccc(F)cc3)CC2)c(Cl)c1)c1ccc(F)cc1,0.188
21,CC(C)(C)OC(=O)[C@H](CC(N)=O)NC(=O)c1ccc(-c2ccc(-c3nc4cc(C(F)(F)F)ccc4[nH]3)s2)cc1,0.271
22,O=C(Nc1ccc(Cn2ncc(N3CCCNCC3)c(Cl)c2=O)cc1)Nc1ccc(-c2ccccc2)cc1,0.797
23,C=C[C@]1(C)C[C@@H](OC(=O)NC(=O)C2CCN(C(=O)CSc3ccccc3)CC2)[C@]2(C)[C@H](C)CC[C@]3(CCC(=O)[C@H]32)[C@@H](C)[C@@H]1O,1.01
24,O=C(NC1CCC(CN2CCC(c3c[nH]c4ccccc34)CC2)CC1)c1cc(-c2ccccc2)c(C(F)(F)F)s1 (configuration not stated),0.167
25,O=C(Nc1ccc([N+](=O)[O-])cc1)Nc1nc2ccc(Cl)cc2s1,0.837

row,SMILES,XC50 [µM]
1,CCOC(=O)CNCC(=O)c1ccc(OCc2ccccc2)cc1,0.161
2,O=C(C=Cc1cccs1)Nc1ccc(-c2nc3ccccc3[nH]2)cc1,1.14
3,CC[C@H]1CN2CC[C@H]1C[C@H]2[C@H](O)c1cc(Cl)nc2ccc(OC)cc12,0.578
4,CCOc1ccccc1NC(=O)Nc1ccc2c(c1)CCN(C1CCC1)CC2,1.11
5,CN1CCN(c2ccnc3ccc(NC(=O)Nc4ccccc4Br)cc23)CC1,0.372
6,COc1cc2nc(-c3ccc(Br)cc3)cc(N)c2cc1OC,0.173
7,CC[C@H]1CN2CC[C@@H]1C[C@H]2[C@H](O)c1cc(-c2ccccc2)nc2ccc(O)cc12,0.189
8,CC[C@H]1CN2CC[C@@H]1C[C@H]2[C@H](O)c1cc(N2CCC(O)(c3ccccc3)CC2)nc2ccc(OC)cc12,0.09
9,CCCC(CNCc1cccc(OC(F)(F)F)c1)CNc1cc(=O)c2ccccc2[nH]1 (configuration not stated),0.556
10,COc1ccc(NC(=O)CCNc2cc(C)nc(NCCc3ccc(F)cc3)n2)cc1,0.848
11,CN1CCN(Cc2ccc(-c3ccc4ncnc(Nc5ccc(OCc6ccccc6)cc5)c4c3)o2)CC1,0.689
12,O=C(/C=C/c1ccc(Cl)c(Cl)c1)NCCCCCN1CCCC(c2c[nH]c3ccccc23)C1 (configuration not stated),0.812
13,CCOc1ccc(Br)cc1/C=C/C(=O)Nc1ccc(C2CCN(C)CC2)cc1,0.45
14,O=C(Nc1ccccc1)N(Cc1ccc(-c2cccc(CNCc3ccc4c(c3)OCO4)c2)cc1)C1CCN(Cc2ccccc2)CC1,0.284
15,N#Cc1ccc(-c2cnc3ccc(NCCc4cccnc4)nn23)cc1,0.255
16,O=C(NC1CCCCN(Cc2ccccc2O)C1)c1ccc(Cl)c(Cl)c1 (configuration not stated),0.747
17,CSc1nc2nc(C)c(Cc3cccc(F)c3)c(C)n2n1,0.904
18,COc1cc(NC(=O)NC(CCN2CCC3(CCc4ccccc43)CC2)c2ccc(Cl)c(Cl)c2)cc(OC)c1OC (configuration not stated),0.679
19,COc1ccc(CNCCc2cccs2)cc1-c1ccc(OC)c(S(=O)(=O)NCCN2CCCC2)c1,1.41
20,Cc1cc(NCCC(=O)Nc2ccccc2)nc(NCCc2cccnc2)n1,1.24
21,Cc1nc(-c2cccc3c(NC(=O)N4CCc5cc6nccc(N7CCN(C)CC7)c6cc54)cccc23)no1,0.76
22,N=C1NC(c2ccccc2)(c2ccccc2)C(=O)N1CC=Cc1ccccc1,0.598
23,CC(C)(C)Nc1cc(C2CC2)nc(-c2ccccn2)n1,0.679
24,CC1CCCCN1Cc1cccc(-c2c[nH]c3nc(NC4CCCC4)ncc23)c1 (configuration not stated),1.31
25,O=C1COC2(CN1C1CCN(Cc3ccc(O)cc3Cl)C1)c1ccccc1-c1ccccc12 (configuration not stated),1.33

row,SMILES,XC50 [µM]
1,O=C(Nc1cc(C(F)(F)F)ccc1Cl)c1ccc(Cn2cc(Br)cn2)cc1,1.35
2,CN1c2ccccc2Sc2cc(CNCCSCCNCc3ccc4c(c3)Sc3ccccc3N4C)ccc21,1.01
3,CC=CC(=O)N1CCN(c2nccc(-c3ccc(C(C)(C)C)cc3)n2)CC1,1.08
4,COc1ccc(-c2ccc(CNCc3ccsc3)cc2)cc1S(=O)(=O)NCCN1CCCC1,0.794
5,COc1ccc(-c2csc3ncnc(Cl)c23)cc1,0.781
6,COc1cc(C2=NN(S(=O)(=O)c3c(Cl)cc(Cl)cc3Cl)CCCC2)ccc1Cl,0.291
7,Cc1ccc2c(Cl)c(C(=O)N3CCCc4ccccc43)sc2c1,1.51
8,OC(c1nnc(S)n1-c1ccccc1)C(O)c1nnc(S)n1-c1ccccc1 (configuration not stated),0.741
9,CCCCCCCN(CCCCCCC)CCCC(=O)Nc1ccnc2ccc(OC)cc12,0.154
10,COc1ccccc1-c1cccc(CNC2CCN(CC3Cn4c(=O)ccc5ccc(F)c3c54)CC2)c1 (configuration not stated),1.38
11,CCC[C@@H]([C@@H](CC1CCC(C)CC1)C(=O)N[C@@H](CO)C(=O)Nc1nccs1)N(O)C=O (some centres not stated),0.325
12,c1cc(-c2ccc(CNC3CCOCC3)cc2)cc(-c2nc3ccccc3[nH]2)c1,0.768
13,Cc1ccc(Cc2c[nH]c(NCCSCc3ccc(CN(C)C)s3)nc2=O)cn1,0.86
14,CN(C)c1ccc(-c2nnc(Sc3ccc(C#N)c([N+](=O)[O-])c3)n2Cc2ccco2)cc1,0.854
15,Cc1cccc2nc(-c3ccc(-c4ccc(CN5CCCC(N)C5)cc4)s3)[nH]c12 (configuration not stated),0.382
16,CCCN(c1ccc(C(F)(F)F)cc1[N+](=O)[O-])S(=O)(=O)C(c1ccccc1)c1ccc(C(F)(F)F)cc1[N+](=O)[O-] (configuration not stated),1.22
17,COc1cc2c(cc1S(=O)(=O)c1ccc(NC(=O)Nc3ccc(F)cc3)cc1)CCN(C)CC2,0.473
18,CC(Cc1ccc(NC(=O)c2ccc(CNCCc3ccccc3)cc2)cc1)NCCc1cccc(Cl)c1 (configuration not stated),0.353
19,O=C(Nc1ccnc(-c2cccnc2)n1)c1cc(C(F)(F)F)cc(C(F)(F)F)c1,0.823
20,CCN(CCCN1CCCCC1)c1cc(C)nc(Nc2ccc(C(C)C)cc2)n1,0.543
21,CCCOC(=O)C1=C(C)NC2=C(C(=O)CC(c3ccc(OC)c(OC)c3)C2)C1c1cccc(O)c1 (configuration not stated),0.121
22,Cc1[nH]c2ccccc2c1C(=O)CSc1nn(-c2ccccc2)c(=S)s1,0.699
